Test system: 485368-065-R3-J5-PDC spheroids with HUVEC/MSC, viability
Test: Anticancer human tumor 485368-065-R3-J5-PDC patient-derived pancreatic carcinoma cell line growth inhibition [RAS]
Settings: for IC50: curve of first compound; for viability, T/C: stronger effect = lower value
Procedure, shortened: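 Agents were tested in combination matrices in half-log decrements from a top concentration at or near clinical Cmax (10 microM if undetermined). Targets were multi-cell spheroids of tumour lines plus HUVEC and MSC stromal cells.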
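Note: spheroids exposed to agents for seven days before readout.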

CCc1c2c(nc3ccc(O)cc13)-c1cc3c(c(=O)n1C2)COC(=O)[C@]3(O)CC + C=CC(=O)N1CCN(c2nc(OCC3CCCN3C)nc3c(F)c(-c4nc(N)cc(C)c4C(F)(F)F)c(Cl)cc23)C(C)C1
IC50 (second compound 0.00316 µM): 1.96 nM
IC50 (second compound 0.01 µM): 2.09 nM
IC50 (second compound 0.0316 µM): 2.15 nM
IC50 (second compound 0.1 µM): 2.06 nM
IC50 (second compound 0.316 µM): 2.08 nM
IC50 (second compound 1 µM): 1.76 nM
viability, T/C (second compound 0.00316 µM, first compound 0.000949 µM): 87.9%
viability, T/C (second compound 0.00316 µM, first compound 0.003 µM): 25.8%
viability, T/C (second compound 0.00316 µM, first compound 0.00949 µM): 15.8%
viability, T/C (second compound 0.00316 µM, first compound 0.03 µM): 6.75%
viability, T/C (second compound 0.00316 µM, first compound 0.0949 µM): 4.49%
viability, T/C (second compound 0.00316 µM, first compound 0.3 µM): 3.28%
viability, T/C (second compound 0.01 µM, first compound 0.000949 µM): 90.6%
viability, T/C (second compound 0.01 µM, first compound 0.003 µM): 28.9%
viability, T/C (second compound 0.01 µM, first compound 0.00949 µM): 17.6%
viability, T/C (second compound 0.01 µM, first compound 0.03 µM): 7.17%
viability, T/C (second compound 0.01 µM, first compound 0.0949 µM): 3.98%
viability, T/C (second compound 0.01 µM, first compound 0.3 µM): 3.67%
viability, T/C (second compound 0.0316 µM, first compound 0.000949 µM): 89.7%
viability, T/C (second compound 0.0316 µM, first compound 0.003 µM): 33.6%
viability, T/C (second compound 0.0316 µM, first compound 0.00949 µM): 13%
viability, T/C (second compound 0.0316 µM, first compound 0.03 µM): 6.26%
viability, T/C (second compound 0.0316 µM, first compound 0.0949 µM): 4.82%
viability, T/C (second compound 0.0316 µM, first compound 0.3 µM): 3.26%
viability, T/C (second compound 0.1 µM, first compound 0.000949 µM): 85.4%
viability, T/C (second compound 0.1 µM, first compound 0.003 µM): 32.5%
viability, T/C (second compound 0.1 µM, first compound 0.00949 µM): 12.2%
viability, T/C (second compound 0.1 µM, first compound 0.03 µM): 6.25%
viability, T/C (second compound 0.1 µM, first compound 0.0949 µM): 4.43%
viability, T/C (second compound 0.1 µM, first compound 0.3 µM): 3.35%
viability, T/C (second compound 0.316 µM, first compound 0.000949 µM): 81.7%
viability, T/C (second compound 0.316 µM, first compound 0.003 µM): 34.7%
viability, T/C (second compound 0.316 µM, first compound 0.00949 µM): 15.1%
viability, T/C (second compound 0.316 µM, first compound 0.03 µM): 5.63%
viability, T/C (second compound 0.316 µM, first compound 0.0949 µM): 4.4%
viability, T/C (second compound 0.316 µM, first compound 0.3 µM): 3.28%
viability, T/C (second compound 1 µM, first compound 0.000949 µM): 74.6%
viability, T/C (second compound 1 µM, first compound 0.003 µM): 26.8%
viability, T/C (second compound 1 µM, first compound 0.00949 µM): 16.5%
viability, T/C (second compound 1 µM, first compound 0.03 µM): 5.78%
viability, T/C (second compound 1 µM, first compound 0.0949 µM): 5.14%
viability, T/C (second compound 1 µM, first compound 0.3 µM): 3.4%

Nc1ccn(C2OC(CO)C(O)C2(F)F)c(=O)n1 (centres undefined) + C=CC(=O)N1CCN(c2nc(OCC3CCCN3C)nc3c(F)c(-c4nc(N)cc(C)c4C(F)(F)F)c(Cl)cc23)C(C)C1
IC50 (second compound 0.00316 µM): 6.42 nM
IC50 (second compound 0.01 µM): 6.43 nM
IC50 (second compound 0.0316 µM): 6.5 nM
IC50 (second compound 0.1 µM): 6.18 nM
IC50 (second compound 0.316 µM): 6.26 nM
IC50 (second compound 1 µM): 6.1 nM
viability, T/C (second compound 0.00316 µM, first compound 0.00316 µM): 107%
viability, T/C (second compound 0.00316 µM, first compound 0.01 µM): 14.7%
viability, T/C (second compound 0.00316 µM, first compound 0.0316 µM): 10.7%
viability, T/C (second compound 0.00316 µM, first compound 0.1 µM): 9.52%
viability, T/C (second compound 0.00316 µM, first compound 0.316 µM): 8.08%
viability, T/C (second compound 0.00316 µM, first compound 1 µM): 10.4%
viability, T/C (second compound 0.01 µM, first compound 0.00316 µM): 104%
viability, T/C (second compound 0.01 µM, first compound 0.01 µM): 16.8%
viability, T/C (second compound 0.01 µM, first compound 0.0316 µM): 9.83%
viability, T/C (second compound 0.01 µM, first compound 0.1 µM): 7.76%
viability, T/C (second compound 0.01 µM, first compound 0.316 µM): 10.4%
viability, T/C (second compound 0.01 µM, first compound 1 µM): 9.94%
viability, T/C (second compound 0.0316 µM, first compound 0.00316 µM): 103%
viability, T/C (second compound 0.0316 µM, first compound 0.01 µM): 18.4%
viability, T/C (second compound 0.0316 µM, first compound 0.0316 µM): 12.1%
viability, T/C (second compound 0.0316 µM, first compound 0.1 µM): 9.22%
viability, T/C (second compound 0.0316 µM, first compound 0.316 µM): 9.83%
viability, T/C (second compound 0.0316 µM, first compound 1 µM): 10.7%
viability, T/C (second compound 0.1 µM, first compound 0.00316 µM): 97%
viability, T/C (second compound 0.1 µM, first compound 0.01 µM): 16.3%
viability, T/C (second compound 0.1 µM, first compound 0.0316 µM): 9.86%
viability, T/C (second compound 0.1 µM, first compound 0.1 µM): 7.88%
viability, T/C (second compound 0.1 µM, first compound 0.316 µM): 9.19%
viability, T/C (second compound 0.1 µM, first compound 1 µM): 9.27%
viability, T/C (second compound 0.316 µM, first compound 0.00316 µM): 101%
viability, T/C (second compound 0.316 µM, first compound 0.01 µM): 15.3%
viability, T/C (second compound 0.316 µM, first compound 0.0316 µM): 8.44%
viability, T/C (second compound 0.316 µM, first compound 0.1 µM): 8.63%
viability, T/C (second compound 0.316 µM, first compound 0.316 µM): 9.97%
viability, T/C (second compound 0.316 µM, first compound 1 µM): 11%
viability, T/C (second compound 1 µM, first compound 0.00316 µM): 89.7%
viability, T/C (second compound 1 µM, first compound 0.01 µM): 20.2%
viability, T/C (second compound 1 µM, first compound 0.0316 µM): 11.6%
viability, T/C (second compound 1 µM, first compound 0.1 µM): 9.69%
viability, T/C (second compound 1 µM, first compound 0.316 µM): 11.4%
viability, T/C (second compound 1 µM, first compound 1 µM): 11.8%
